# Target: human plasma kallikrein (Homo sapiens (Human), UniProt P03952)
# Assay: In vitro enzyme inhibition of human plasma kallikrein (Pro-Phe-Arg-AMC cleavage)
# Format: biochemical
# Conditions: Pro-Phe-Arg-AMC substrate, 37° C., read-out: hPK IC50
# Protocol: The ability of the compounds disclosed herein to inhibit human plasma kallikrein activity was quantified according to the procedures below.
# A 10 mM solution of the test compound was made in DMSO. […] A control tube containing only DMSO is included. 16 μL of each compound test solution was combined with 384 μL of assay buffer (50 mM Tris-HCl pH 7.5, 150 mM NaCl, 0.01% Triton X-100) to yield a “4× test compound buffer stock”.
# These solutions are hereby referred to as 4×hPK and 2×PFR-AMC, respectively.
# 50 μL was removed from this mixture and placed into duplicate wells on a Microfluor 1Black U-bottom microtiter plate (Thermo Scientific). This plate was incubated for 5 minutes at 37° C. To each well, 50 µL of pre-warmed 2×PFR-AMC was added to start the enzymatic reaction. Cleavage of PFR-AMC was monitored in a Biotek Synergy H4 reader set at 37° C. Readings are taken every 43 seconds for 1 hour. […] The IC50 is calculated using the Gen5 (Biotek Instruments).
# The ability of the compounds in Table 3 to inhibit human plasma kallikrein activity was determined.
# human plasma kallikrein, sequence (P03952 391-638 limits assumed): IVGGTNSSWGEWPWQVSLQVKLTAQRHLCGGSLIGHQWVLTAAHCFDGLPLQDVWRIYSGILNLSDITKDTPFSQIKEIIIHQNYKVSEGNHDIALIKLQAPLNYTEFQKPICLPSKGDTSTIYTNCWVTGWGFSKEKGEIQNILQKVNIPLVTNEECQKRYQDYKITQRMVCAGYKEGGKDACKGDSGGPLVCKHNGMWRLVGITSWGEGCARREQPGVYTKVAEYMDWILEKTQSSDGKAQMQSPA
# human plasma kallikrein, sequence (P03952 20-390 partner limits assumed): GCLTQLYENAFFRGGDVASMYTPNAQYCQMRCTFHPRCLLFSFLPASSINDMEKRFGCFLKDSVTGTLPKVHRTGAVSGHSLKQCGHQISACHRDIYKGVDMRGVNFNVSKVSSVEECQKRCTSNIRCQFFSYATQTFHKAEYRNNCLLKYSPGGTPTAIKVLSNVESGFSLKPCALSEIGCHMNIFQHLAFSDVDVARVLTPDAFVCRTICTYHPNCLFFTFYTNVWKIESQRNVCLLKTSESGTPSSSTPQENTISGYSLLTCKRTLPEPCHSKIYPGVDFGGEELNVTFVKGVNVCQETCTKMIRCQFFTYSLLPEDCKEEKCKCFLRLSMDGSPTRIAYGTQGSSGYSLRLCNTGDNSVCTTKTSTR
row,Compound,IC50 [nM]
1,"Cc1cc(N)nc(C)c1CNC(=O)c1cc(Cc2ccc3ncc(Cl)cc3c2)nc(C(=O)O)c1 [Example 209, 4-((6-amino-2,4-dimethylpyridin-3-yl)methylcarbamoyl)-6-((3-chloroquinolin-6-yl)methyl)picolinic Acid]",< 100
2,N-(3-chloro-6-fluoro-1H-indol-5-ylmethyl)-2-(2-cyano-quinolin-6-ylmethyl)-isonicotinamide [Example 130],< 100

# Tested on: not listed separately
# Assay: Contact Assay (percentage inhibition from fluorescence intensity)
# Format: biochemical
# Conditions: not given
# Protocol: The percentage inhibition was calculated using the following equation:
# [formula] where, Mean(BG) is the average value of the fluorescence intensity of the background wells and Mean(PC) is the average value of the fluorescence intensity of the positive control wells.
# Table 4 provides the EC50 values of various compounds disclosed herein.
row,Compound,EC50 [nM]
1,"O=C(NCc1cnc2[nH]cc(Cl)c2c1)c1ccnc(Cc2ccc3ncc(Cl)cc3c2)c1 [Example 38, N-(3-Chloro-1H-pyrrolo[2,3-b]pyridin-5-ylmethyl)-2-(3-chloro-quinolin-6-ylmethyl)-isonicotinamide]",100 to 1000
2,"Cc1nc(N)ccc1CNC(=O)c1ccnc(Cc2cc(CN)c3ncc(Cl)cc3c2)c1 [Example 253, N-((6-amino-2-methylpyridin-3-yl)methyl)-2-((8-(aminomethyl)-3-chloroquinolin-6-yl)methyl)isonicotinamide]",≤ 100
3,"Cc1cnc2ccc(Cc3cc(C(=O)NCc4ccc5c(N)nccc5c4)ccn3)cc2c1 [Example 142, N-((1-aminoisoquinolin-6-yl)methyl)-2-((3-methylquinolin-6-yl)methyl)isonicotinamide]",≤ 100
4,"CC(C)(O)c1cc(Cc2cc(C(=O)NCc3cnc4[nH]cc(Cl)c4c3)ccn2)cc2cc(Cl)cnc12 [Example 223, N-((3-chloro-1H-pyrrolo[2,3-b]pyridin-5-yl)methyl)-2-((3-chloro-8-(2-hydroxypropan-2-yl)quinolin-6-yl)methyl)isonicotinamide]",≤ 100
5,"Cc1cc(N)nc(C)c1CNC(=O)c1ccnc(Cc2cc(N)c3ncc(Cl)cc3c2)c1 [Example 217, N-((6-amino-2,4-dimethylpyridin-3-yl)methyl)-2-((8-amino-3-chloroquinolin-6-yl)methyl)isonicotinamide]",≤ 100
6,"Cc1cc(N)nc(C)c1CNC(=O)c1ccnc(Cc2cc(C(C)(C)O)c3ncc(Cl)cc3c2)c1 [Example 219, N-((6-amino-2,4-dimethylpyridin-3-yl)methyl)-2-((3-chloro-8-(2-hydroxypropan-2-yl)quinolin-6-yl)methyl)isonicotinamide]",≤ 100
7,"Cc1cnc2c(C(N)=O)cc(Cc3cc(C(=O)NCc4cc5cc[nH]c5cc4F)ccn3)cc2c1 [Example 83, 6-((4-(((6-fluoro-1H-indol-5-yl)methyl)carbamoyl)pyridin-2-yl)methyl)-3-methylquinoline-8-carboxamide]",100 to 1000
8,"Cc1cc(C(=O)NCc2c(C)cc(N)nc2C)cc(Cc2ccc3ncc(Cl)cc3c2)n1 [Example 104, N-((6-amino-2,4-dimethylpyridin-3-yl)methyl)-2-((3-chloroquinolin-6-yl)methyl)-6-methylisonicotinamide]",≤ 100
9,"Cc1nc2ccc(Cc3cc(C(=O)NCc4ccc(N)nc4C)ccn3)cc2cc1Cl [Example 239, N-((6-amino-2-methylpyridin-3-yl)methyl)-2-((3-chloro-2-methylquinolin-6-yl)methyl)isonicotinamide]",100 to 1000
10,"Cc1ccc2ncc(Cc3cc(C(=O)NCc4c(C)cc(N)nc4C)ccn3)cc2c1 [Example 114, N-((6-amino-2,4-dimethylpyridin-3-yl)methyl)-2-((6-methylquinolin-3-yl)methyl)isonicotinamide]",≤ 100
11,"Cc1cc(N)nc(C)c1CNC(=O)c1ccnc(Cc2ccc3nc(C)c(Cl)cc3c2)c1 [Example 238, N-((6-amino-2,4-dimethylpyridin-3-yl)methyl)-2-((3-chloro-2-methylquinolin-6-yl)methyl)isonicotinamide]",≤ 100

# More lines, now with the values ahead:
row,EC50 [nM],Compound
1,100 to 1000,"Cc1cc(N)nc(C)c1CNC(=O)c1cc(Cc2ccc3ncc(Cl)cc3c2)nc(C(=O)O)c1 [Example 209, 4-((6-amino-2,4-dimethylpyridin-3-yl)methylcarbamoyl)-6-((3-chloroquinolin-6-yl)methyl)picolinic Acid]"
2,100 to 1000,"Cc1cc(N)nc(C)c1CNC(=O)c1ccnc(Cc2cc(-c3nnn[nH]3)c3ncc(Cl)cc3c2)c1 [Example 272, N-((6-amino-2,4-dimethylpyridin-3-yl)methyl)-2-((3-chloro-8-(1H-tetrazol-5-yl)quinolin-6-yl)methyl)isonicotinamide]"
3,≤ 100,"Cc1c(CNC(=O)c2ccnc(Cc3ccc4ncc(C(F)(F)F)cc4c3)c2)ccc2c(N)nccc12 [Example 184, N-((1-amino-5-methylisoquinolin-6-yl)methyl)-2-((3-(trifluoromethyl)quinolin-6-yl)methyl)isonicotinamide]"
4,100 to 1000,"Nc1nccc2cc(CNC(=O)c3ccnc(Cc4ccc5ncc(Cl)cc5c4)c3)c(F)cc12 [Example 180, N-((1-amino-7-fluoroisoquinolin-6-yl)methyl)-2-((3-chloroquinolin-6-yl)methyl)isonicotinamide]"
5,≤ 100,"Nc1nccc2cc(CNC(=O)c3ccnc(Cc4ccc5ncc(Cl)cc5c4)c3)ccc12 [Example 179, N-((1-aminoisoquinolin-6-yl)methyl)-2-((3-chloroquinolin-6-yl)methyl)isonicotinamide]"
6,100 to 1000,"Cc1cc(N)nc(C)c1CNC(=O)c1ccnc(C(N)c2ccc3ncc(Cl)cc3c2)c1 (stereo not drawn) [Example 276, 2-[Amino-(3-chloro-quinolin-6-yl)-methyl]-N-(6-amino-2,4-dimethyl-pyridin-3-ylmethyl)-isonicotinamide]"
7,≤ 100,"Cc1cc(N)nc(C)c1CNC(=O)c1cc(CN)nc(Cc2ccc3ncc(Cl)cc3c2)c1 [Example 211, N-((6-amino-2,4-dimethylpyridin-3-yl)methyl)-2-(aminomethyl)-6-((3-chloroquinolin-6-yl)methyl)isonicotinamide]"
8,≤ 100,"Cc1cnc2c(C(N)=O)cc(Cc3cc(C(=O)NCc4ccc5c(N)nccc5c4)ccn3)cc2c1 [Example 79, 6-((4-(((1-aminoisoquinolin-6-yl)methyl)carbamoyl)pyridin-2-yl)methyl)-3-methylquinoline-8-carboxamide]"

# — patent US10308637B2 (LifeSci Pharmaceuticals, Inc., priority 2015, dated 2019)
